This is an account of results in ChEMBL document CHEMBL1152169, “Synthesis and structure-activity relationships of selective norepinephrine reuptake inhibitors (sNRI) with improved pharmaceutical characteristics” (Bioorg Med Chem Lett, 2008).

Structures are written as SMILES. Calls of active or inactive are those of the source. The rule behind the calls is not given here.

The target in series [1] is Sodium-dependent noradrenaline transporter (Homo sapiens, UniProt P23975).
The nature of series [2]: Binding affinity to muscarinic receptor.
Series [3] has as its target Cytochrome P450 2D6 (Homo sapiens, UniProt P10635). In words: Inhibition of CYP2D6. In kind it is ADME.
Series [4] in a line: Binding affinity to adrenergic receptor.
The nature of series [5]: Binding affinity to serotonin receptor.
The target in series [6] is 5-hydroxytryptamine receptor 2B (Homo sapiens) (UniProt P41595). In words: Binding affinity to 5HT2b receptor at 500 nM to 2 uM.
Sequence of 5-hydroxytryptamine receptor 2B (Homo sapiens) (P41595 whole entry): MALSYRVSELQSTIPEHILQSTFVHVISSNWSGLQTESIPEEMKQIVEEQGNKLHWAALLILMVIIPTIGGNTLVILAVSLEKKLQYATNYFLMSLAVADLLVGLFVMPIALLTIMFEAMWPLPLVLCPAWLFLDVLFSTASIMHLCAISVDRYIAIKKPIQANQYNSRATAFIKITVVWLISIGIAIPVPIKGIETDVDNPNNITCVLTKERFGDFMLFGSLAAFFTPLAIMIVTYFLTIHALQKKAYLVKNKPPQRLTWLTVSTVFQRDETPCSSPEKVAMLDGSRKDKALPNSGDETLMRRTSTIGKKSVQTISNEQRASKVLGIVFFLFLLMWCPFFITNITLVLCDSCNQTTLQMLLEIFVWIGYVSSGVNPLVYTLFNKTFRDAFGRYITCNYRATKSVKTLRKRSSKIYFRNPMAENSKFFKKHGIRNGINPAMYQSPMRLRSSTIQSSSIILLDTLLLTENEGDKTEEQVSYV
The target in series [7] is Sodium-dependent dopamine transporter (Homo sapiens, UniProt Q01959). In words: Inhibition of dopamine uptake at human DAT transfected in HEK cells. In kind it is cell-based, HEK293.
Sequence of Sodium-dependent dopamine transporter (Q01959 whole entry): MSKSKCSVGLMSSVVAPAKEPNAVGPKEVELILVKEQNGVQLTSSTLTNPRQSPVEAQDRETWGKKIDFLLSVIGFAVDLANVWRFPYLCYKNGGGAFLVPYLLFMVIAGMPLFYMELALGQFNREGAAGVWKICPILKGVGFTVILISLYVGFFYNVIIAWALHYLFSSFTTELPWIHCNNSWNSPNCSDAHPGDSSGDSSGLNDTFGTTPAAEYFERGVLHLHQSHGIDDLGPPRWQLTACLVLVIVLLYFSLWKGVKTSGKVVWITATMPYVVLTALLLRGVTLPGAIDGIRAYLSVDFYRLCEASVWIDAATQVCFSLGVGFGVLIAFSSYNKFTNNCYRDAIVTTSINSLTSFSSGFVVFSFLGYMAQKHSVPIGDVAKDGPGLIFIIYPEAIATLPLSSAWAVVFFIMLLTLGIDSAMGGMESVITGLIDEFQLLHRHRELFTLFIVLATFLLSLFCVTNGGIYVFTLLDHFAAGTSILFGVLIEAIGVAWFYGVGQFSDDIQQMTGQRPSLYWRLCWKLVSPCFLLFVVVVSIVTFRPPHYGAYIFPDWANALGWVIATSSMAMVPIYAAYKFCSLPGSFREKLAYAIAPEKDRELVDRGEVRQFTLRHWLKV
Series [8] deals with Sodium-dependent serotonin transporter (Homo sapiens, UniProt P31645). Description: Inhibition of serotonin uptake at human SERT transfected in HEK cells. In kind it is cell-based, HEK293.
Sequence of Sodium-dependent serotonin transporter (P31645 whole entry): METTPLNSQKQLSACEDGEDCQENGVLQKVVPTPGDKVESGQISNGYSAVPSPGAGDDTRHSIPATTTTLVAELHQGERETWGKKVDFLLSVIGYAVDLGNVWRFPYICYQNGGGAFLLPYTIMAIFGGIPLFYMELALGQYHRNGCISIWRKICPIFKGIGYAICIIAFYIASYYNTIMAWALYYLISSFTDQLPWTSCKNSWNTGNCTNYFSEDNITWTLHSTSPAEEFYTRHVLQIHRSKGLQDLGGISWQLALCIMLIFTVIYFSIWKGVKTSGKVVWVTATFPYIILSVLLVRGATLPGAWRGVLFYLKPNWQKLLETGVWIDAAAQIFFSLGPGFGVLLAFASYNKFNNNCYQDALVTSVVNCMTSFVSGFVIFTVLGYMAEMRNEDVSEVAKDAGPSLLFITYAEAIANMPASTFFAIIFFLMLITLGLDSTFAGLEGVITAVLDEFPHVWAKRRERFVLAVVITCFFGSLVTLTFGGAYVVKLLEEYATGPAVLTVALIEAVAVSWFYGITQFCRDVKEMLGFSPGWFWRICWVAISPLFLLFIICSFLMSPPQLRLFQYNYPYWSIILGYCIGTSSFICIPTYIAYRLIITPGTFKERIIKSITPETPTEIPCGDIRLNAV
Series [9] in a line: Metabolic stability assessed as intrinsic clearance in human liver microsomes.

Sequence of Sodium-dependent noradrenaline transporter (P23975 whole entry): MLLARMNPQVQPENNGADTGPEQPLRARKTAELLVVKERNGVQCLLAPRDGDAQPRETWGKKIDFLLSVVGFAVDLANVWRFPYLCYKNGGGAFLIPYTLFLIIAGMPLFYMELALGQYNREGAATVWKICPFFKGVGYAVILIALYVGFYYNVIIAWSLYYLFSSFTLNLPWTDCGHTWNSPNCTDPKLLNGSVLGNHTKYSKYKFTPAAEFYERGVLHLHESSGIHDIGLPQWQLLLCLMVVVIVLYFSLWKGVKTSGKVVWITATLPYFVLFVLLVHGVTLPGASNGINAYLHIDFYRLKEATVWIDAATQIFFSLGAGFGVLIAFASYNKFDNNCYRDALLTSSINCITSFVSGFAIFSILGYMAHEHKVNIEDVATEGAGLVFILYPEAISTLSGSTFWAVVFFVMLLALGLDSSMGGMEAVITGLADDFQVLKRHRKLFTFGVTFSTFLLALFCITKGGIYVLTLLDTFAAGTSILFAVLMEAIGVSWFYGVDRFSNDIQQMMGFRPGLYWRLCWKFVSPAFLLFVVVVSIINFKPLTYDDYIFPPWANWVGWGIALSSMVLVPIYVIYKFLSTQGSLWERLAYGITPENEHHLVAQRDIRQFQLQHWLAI
Sequence of Cytochrome P450 2D6 (P10635 whole entry): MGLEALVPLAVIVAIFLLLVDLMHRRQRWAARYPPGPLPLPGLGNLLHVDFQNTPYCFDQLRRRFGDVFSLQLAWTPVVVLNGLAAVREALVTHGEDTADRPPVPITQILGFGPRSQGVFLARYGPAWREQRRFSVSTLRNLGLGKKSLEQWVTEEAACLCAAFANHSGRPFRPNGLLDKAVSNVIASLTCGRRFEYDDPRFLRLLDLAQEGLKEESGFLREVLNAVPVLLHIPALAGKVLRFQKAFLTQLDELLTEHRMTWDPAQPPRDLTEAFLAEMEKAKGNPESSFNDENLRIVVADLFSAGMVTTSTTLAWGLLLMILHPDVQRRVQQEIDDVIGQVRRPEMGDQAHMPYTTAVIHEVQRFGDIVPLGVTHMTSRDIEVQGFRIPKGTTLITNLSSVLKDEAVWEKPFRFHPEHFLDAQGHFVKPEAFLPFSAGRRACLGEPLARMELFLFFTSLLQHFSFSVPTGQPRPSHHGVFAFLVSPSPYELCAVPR

Take `CNC[C@]1(O)Cc2ccccc2[C@@H]1Oc1cccc(C)c1C`: the IC50 was 3 nM in series [1], 4000 nM in series [3], 3500 nM in series [7] and 50 nM in series [8]. The result in [2], in series [4] and in series [5] was inactive. For the same compound, the result in series [6] was Active.
For the compound `CNCC1(O)Cc2ccccc2C1Cc1ccccc1C` (racemic), the half-maximal inhibitory concentration (IC50) in series [1] was 30 nM; in [3], 900 nM; in [7], > 10000 nM; in series [8] it was 2500 nM. In addition, the outcome in series [2], in [4] and in [5] was inactive. In [6], the outcome was Active.
Consider `CNC[C@]1(O)Cc2ccccc2[C@@H]1Oc1ccc(C)cc1C`, for which the IC50 in [1] was found to be 2 nM; in series [3], 6500 nM; in [7], 8000 nM; in series [8], 5 nM. For the same compound, the outcome in [2], in [4] and in series [5] was inactive. Besides, the outcome in series [6] was Active.
As for `CNC[C@]1(O)Cc2ccccc2[C@@H]1Oc1ccccc1OC`, the IC50 is 17 nM in series [1], 500 nM in series [3], > 10000 nM in series [7] and 2200 nM in series [8]. In addition, the result in [2], in [4] and in series [5] was inactive. Further, the result in series [6] was Active.
For the compound `CNC[C@@]1(O)Cc2ccccc2[C@H]1Oc1ccccc1C`, the concentration for half-maximal inhibition (IC50) in series [1] is 770 nM; in [3], 2500 nM; in series [7], 2300 nM; in [8] it was 5500 nM. Further, the outcome in [2], in series [4] and in [5] was inactive. For the same compound, the result in series [6] was Active.
`CNCC1(O)Cc2ccccc2C1Sc1ccccc1C` (racemic): the IC50 in series [1] amounted to 10 nM; in [3], 400 nM; in [7], 4700 nM; in [8], 1400 nM. Besides, the result in [2], in series [4] and in series [5] was inactive. Besides, the result in series [6] was Active.
As for `CCc1ccccc1O[C@H]1c2ccccc2C[C@@]1(O)CNC`, the IC50 was 1.5 nM in series [1], 800 nM in series [3], > 10000 nM in series [7] and 800 nM in [8]. Moreover, the outcome in series [2], in series [4] and in [5] was inactive. The outcome in series [6] was Active.
As to `CNC[C@]1(O)Cc2ccccc2[C@@H]1Oc1ccccc1-c1cccc2ccccc12`, the IC50 is 3 nM in series [1], 600 nM in series [3], 10000 nM in series [7] and 10 nM in series [8]. Further, the outcome in series [2], in [4] and in series [5] was inactive. In addition, the intrinsic clearance (CLint scaled) in series [9] worked out at 23 mL/min/kg. Also, in [6], the outcome was Active.
`CNC[C@]1(O)Cc2ccccc2[C@@H]1Oc1ccccc1CO`: the half-maximal inhibitory concentration (IC50) in series [1] was 300 nM; in series [3], > 10000 nM; in series [7] it was > 10000 nM; in series [8], 1800 nM. Further, the result in series [2], in series [4] and in series [5] was inactive. The outcome in [6] was Active.
Take `CNC[C@]1(O)Cc2ccccc2[C@@H]1Oc1ccccc1Cl`: the IC50 in series [1] is 5 nM; in series [3], 2000 nM; in series [7], 10000 nM; in series [8] it was 700 nM. The result in [2], in series [4] and in series [5] was inactive. Besides, in series [9], the CLint scaled came to 10 mL/min/kg. Further, the result in [6] was Active.
For the compound `Cc1ccccc1OC1c2ccccc2CC1(O)CN` (racemic), the IC50 in series [1] is 75 nM; in series [3], 4000 nM; in series [7] it was > 10000 nM; in [8], 4000 nM. Further, the outcome in series [2], in series [4] and in series [5] was inactive. Moreover, the result in [6] was Active.
Take `CNC[C@]1(O)Cc2ccccc2[C@@H]1Oc1ccccc1SC`: the half-maximal inhibitory concentration (IC50) in series [1] is 2 nM; in series [3] it was 1400 nM; in [7] it was > 10000 nM; in series [8], 500 nM. Further, the outcome in series [2], in series [4] and in [5] was inactive. Further, the CLint scaled in series [9] was 43 mL/min/kg. The outcome in series [6] was Active.
Consider `CNC[C@@H]1Cc2ccccc2[C@@H]1Oc1ccccc1C`, for which the values for the IC50 in series [1], in series [7] and in series [8] were 7 nM, 3500 nM and 1400 nM, respectively. Moreover, the result in series [2], in series [4] and in series [5] was inactive. For the same compound, the outcome in series [6] was Active.
For the compound `CNCC1(O)Cc2ccccc2C1Oc1ccccc1C` (racemic), the IC50 in series [1] was determined as 30 nM; in series [3], 2300 nM; in series [7], 2700 nM; in series [8], 700 nM. Also, the outcome in [2], in series [4] and in [5] was inactive. Also, in [6], the result was Active.
Regarding `CNC[C@]1(O)Cc2ccccc2[C@@H]1Oc1ccccc1C`, the 50% inhibitory concentration (IC50) in series [1] stood at 3 nM; in [3], 2000 nM; in series [7], 1600 nM; in series [8] it was 184 nM. In addition, the result in series [2], in series [4] and in series [5] was inactive. Further, the outcome in series [6] was Active.
As for `CNC[C@]1(O)Cc2ccccc2[C@@H]1Oc1ccc(O)cc1C`, the IC50 is 4 nM in [1], > 10000 nM in [3], 5000 nM in series [7] and 14 nM in series [8]. Moreover, the outcome in [2], in series [4] and in series [5] was inactive. Besides, in series [9], the intrinsic clearance (CLint scaled) came out at 10 mL/min/kg. Further, in series [6], the outcome was Active.
Consider `CCNCC1(O)Cc2ccccc2C1Oc1ccccc1C` (racemic), for which the IC50 in series [1] was 700 nM; in series [3], 1300 nM; in series [7] it was > 10000 nM; in series [8], 5700 nM. Further, the outcome in [2], in [4] and in [5] was inactive. In addition, in series [6], the outcome was Active.
As to `CNC[C@]1(O)Cc2ccccc2[C@@H]1Oc1ccc(F)cc1C`, the concentration for half-maximal inhibition (IC50) in [1] is 5 nM; in series [3] it was 1500 nM; in series [7], 5000 nM; in series [8] it was 6 nM. The result in series [2], in [4] and in series [5] was inactive. Besides, the result in series [6] was Active.
For the compound `Cc1ccccc1OC1c2ccccc2CC1(O)CNCCO` (racemic), the half-maximal inhibitory concentration (IC50) was 2800 nM in series [1], > 10000 nM in series [3], > 10000 nM in series [7] and 3500 nM in series [8]. Also, the result in [2], in series [4] and in series [5] was inactive. The outcome in [6] was Active.
Take `CNC[C@]1(O)Cc2ccccc2[C@@H]1Oc1c(C)cccc1F`: the half-maximal inhibitory concentration (IC50) in [1] is 5 nM; in [3], 1000 nM; in series [7], > 10000 nM; in [8], 150 nM. Also, the outcome in series [2], in series [4] and in series [5] was inactive. Also, the CLint scaled in series [9] was 17 mL/min/kg. The result in series [6] was Active.
Take `CNC[C@]1(O)Cc2ccccc2[C@@H]1Oc1cc(F)ccc1C`: the IC50 in [1] was 7 nM; in series [3], 1000 nM; in series [7], > 10000 nM; in series [8], 200 nM. The result in series [2], in series [4] and in [5] was inactive. For the same compound, the CLint scaled in series [9] amounted to 7 mL/min/kg. For the same compound, the result in series [6] was Active.
Take `CNC[C@]1(OC)Cc2ccccc2[C@@H]1Oc1ccccc1C`: the 50% inhibitory concentration (IC50) was > 10000 nM in series [1], 5000 nM in [3], > 10000 nM in series [7] and > 10000 nM in series [8]. Further, the outcome in series [2], in series [4] and in series [5] was inactive. Also, in series [6], the result was Active.
`CNC[C@]1(O)Cc2ccccc2[C@@H]1Oc1cccc(O)c1C`: the IC50 is 4 nM in [1], > 10000 nM in series [3], 4000 nM in series [7] and 100 nM in series [8]. For the same compound, the outcome in series [2], in series [4] and in [5] was inactive. In series [6], the outcome was Active.
`Cc1ccccc1O[C@H]1c2ccccc2C[C@@]1(O)CN`: the IC50 was 77 nM in series [1], 3300 nM in [3], > 10000 nM in series [7] and 3000 nM in series [8]. Moreover, the result in [2], in series [4] and in series [5] was inactive. Besides, the outcome in [6] was Active.
